In brackets after ≈: the same amount, converted by molar mass.
Key:
Assay in all cases: in vitro antibacterial evaluation, MIC by broth dilution
Format in all cases: cell-based
[1] = system: Streptococcus sp.
Experimental: (§1) Methods for in vitro Antibacterial Evaluation (Table 1)
(§2) The minimum inhibitory concentration (MIC), the lowest concentration of the antibiotic which inhibits growth of the test organism, is determined by the broth dilution method using Muller-Hinton II […] (Baltimore Biological Laboratories) following the recommendations of the National Committee for Clinical Laboratory Standards [Methods for dilution antimicrobial susceptibility tests for bacteria that grow aerobically, approved standard M7-A2, National Committee for Clinical Laboratory Standards, Villanova, Pa.].
(§3) An inoculum level of 5×10^5 CFU/mL, and a range of antibiotic concentrations (64-0.06 μg/mL) is used. […] The test organisms include a spectrum of Gram-positive bacteria comprised of Staphylococcus sp., Streptococcus sp. and Enterococcus sp. These organisms include recent clinical isolates that are resistant to methicillin, penicillin and/or vancomycin.

[2] = system: Enterococcus sp.
Experimental: as §1, §2, §3

[3] = system: Staphylococcus sp.; details: broth dilution, 18 hours at 35° C.; for MIC Staphylococcus aureus (ATCC 29213): strain ATCC 29213; for MIC Staphylococcus aureus (GC 1131): strain GC 1131; for MIC Staphylococcus aureus (GC 3051): strain GC 3051; for MIC Staphylococcus aureus (GC 3053): strain GC 3053; for MIC Staphylococcus aureus (GC 4541): strain GC 4541; for MIC Staphylococcus aureus (GC 4542): strain GC 4542; for MIC Staphylococcus aureus-SMITH (GC 4543): strain GC 4543; for MIC Staphylococcus aureus (GC 4544): strain GC 4544; for MIC Staphylococcus aureus (GC 4545): strain GC 4545; for MIC Staphylococcus haemolyticus (GC 4546): strain GC 4546; for MIC Coagulase Negative Staphylococcus (GC 4547): strain GC 4547; for MIC Coagulase Negative Staphylococcus (GC 4548): strain GC 4548; for MIC Coagulase Negative Staphylococcus (GC 4549): strain GC 4549; for MIC Coagulase Negative Staphylococcus (GC 4551): strain GC 4551; for MIC Coagulase Negative Staphylococcus (GC 6257): strain GC 6257
Experimental: as §1, §2, §3

[4] = system: Escherichia coli; details: 18 hours at 35° C.
How it was run: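 Broth dilution in Muller-Hinton II medium per NCCLS standard M7-A2, with an inoculum of 5×10^5 CFU/mL and antibiotic tested over 64-0.06 μg/mL. MIC was taken as the lowest concentration inhibiting visible growth.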

[5] = broth dilution, 18 hours at 35° C.

CC(c1ccccc1)C1NC(=O)CNC(=O)C(CO)NC(=O)C(CC2CN(Cc3ccccc3)C(=N)N2C2OC(CO)C(O)C(O)C2O)NC(=O)C(CC2CNC(=N)N2)NC(=O)C(Cc2ccc(OC3OC(CO)C(OC4OC5COC6(OC5C(O)C4O)C4CC5CC(C4)CC6C5)C(O)C3O)cc2)NC1=O (stereo not drawn) [Example 80, Cyclo[3-(2-iminoimidazolidin-4-yl)alanyl-3-(1-benzyl-3-hexopyranosyl-2-iminoimidazolidin-4-yl)alanylserylglycyl-β-methylphenylalanyl-O-[4-O-[4,6-O-(2-adamantylidene)hexopyranosyl]hexopyranosyl]tyrosyl]]
MIC Streptococcus agalactiae (GC 4564) [1, 5]: 8 µg/mL (≈ 5.38 µM)
MIC Streptococcus pneumoniae (ATCC 6301) [1, 5]: 8 µg/mL (≈ 5.38 µM)
MIC Streptococcus pneumoniae (GC 1894) [1, 5]: 4 µg/mL (≈ 2.69 µM)
MIC Streptococcus pneumoniae (GC 4565) [1, 5]: 16 µg/mL (≈ 10.8 µM)
MIC Streptococcus pyogenes (GC 4563) [1, 5]: 8 µg/mL (≈ 5.38 µM)
MIC Streptococcus pneumoniae (ATCC 6301) ([1]; broth dilution, 18 hours at 35° C.; strain ATCC 6301): 8 µg/mL (≈ 5.38 µM)
MIC Streptococcus pneumoniae (GC 1894) ([1]; broth dilution, 18 hours at 35° C.; strain GC 1894): 4 µg/mL (≈ 2.69 µM)
MIC Streptococcus pyogenes (GC 4563) ([1]; broth dilution, 18 hours at 35° C.; strain GC 4563): 8 µg/mL (≈ 5.38 µM)
MIC Streptococcus agalactiae (GC 4564) ([1]; broth dilution, 18 hours at 35° C.; strain GC 4564): 8 µg/mL (≈ 5.38 µM)
MIC Streptococcus pneumoniae (GC 4565) ([1]; broth dilution, 18 hours at 35° C.; strain GC 4565): 16 µg/mL (≈ 10.8 µM)
MIC Enterococcus avium (GC 4558) ([2]; Enterococcus avium (GC 4558); broth dilution, 18 hours at 35° C.): 32 µg/mL (≈ 21.5 µM)
MIC Enterococcus faecalis (ATCC 29212) ([2]; Enterococcus faecalis (ATCC 29212); broth dilution, 18 hours at 35° C.): 64 µg/mL (≈ 43.1 µM)
MIC Enterococcus faecalis (GC 4552) ([2]; Enterococcus faecalis (GC 4552); broth dilution, 18 hours at 35° C.): 64 µg/mL (≈ 43.1 µM)
MIC Enterococcus faecalis (GC 4553) ([2]; Enterococcus faecalis (GC 4553); broth dilution, 18 hours at 35° C.): 32 µg/mL (≈ 21.5 µM)
MIC Enterococcus faecalis (GC 4554) ([2]; Enterococcus faecalis (GC 4554); broth dilution, 18 hours at 35° C.): 64 µg/mL (≈ 43.1 µM)
MIC Enterococcus faecalis (GC 6189) ([2]; Enterococcus faecalis (GC 6189); broth dilution, 18 hours at 35° C.): 64 µg/mL (≈ 43.1 µM)
MIC Enterococcus faecium (GC 2243) ([2]; Enterococcus faecium (GC 2243); broth dilution, 18 hours at 35° C.): 32 µg/mL (≈ 21.5 µM)
MIC Enterococcus faecium (GC 4556) ([2]; Enterococcus faecium (GC 4556); broth dilution, 18 hours at 35° C.): 64 µg/mL (≈ 43.1 µM)
MIC Enterococcus faecium (GC 4557) ([2]; Enterococcus faecium (GC 4557); broth dilution, 18 hours at 35° C.): 16 µg/mL (≈ 10.8 µM)
MIC Enterococcus avium (GC 4558) [2, 5]: 32 µg/mL (≈ 21.5 µM)
MIC Enterococcus faecalis (ATCC 29212) [2, 5]: 64 µg/mL (≈ 43.1 µM)
MIC Enterococcus faecalis (GC 2242) [2, 5]: 32 µg/mL (≈ 21.5 µM)
MIC Enterococcus faecalis (GC 2691) [2, 5]: 64 µg/mL (≈ 43.1 µM)
MIC Enterococcus faecalis (GC 3059) [2, 5]: 64 µg/mL (≈ 43.1 µM)
MIC Enterococcus faecalis (GC 4552) [2, 5]: 64 µg/mL (≈ 43.1 µM)
MIC Enterococcus faecalis (GC 4553) [2, 5]: 32 µg/mL (≈ 21.5 µM)
MIC Enterococcus faecalis (GC 4554) [2, 5]: 64 µg/mL (≈ 43.1 µM)
MIC Enterococcus faecalis (GC 6189) [2, 5]: 64 µg/mL (≈ 43.1 µM)
MIC Enterococcus faecium (GC 2243) [2, 5]: 32 µg/mL (≈ 21.5 µM)
MIC Enterococcus faecium (GC 4556) [2, 5]: 64 µg/mL (≈ 43.1 µM)
MIC Enterococcus faecium (GC 4557) [2, 5]: 16 µg/mL (≈ 10.8 µM)
MIC Enterococcus faecalis (GC 2242) ([2]; broth dilution, 18 hours at 35° C.; strain GC 2242): 32 µg/mL (≈ 21.5 µM)
MIC Enterococcus faecalis (GC 2691) ([2]; broth dilution, 18 hours at 35° C.; strain GC 2691): 64 µg/mL (≈ 43.1 µM)
MIC Enterococcus faecalis (GC 3059) ([2]; broth dilution, 18 hours at 35° C.; strain GC 3059): 64 µg/mL (≈ 43.1 µM)
MIC Staphylococcus aureus (ATCC 29213) [3]: 32 µg/mL (≈ 21.5 µM)
MIC Staphylococcus aureus (GC 1131) [3]: 32 µg/mL (≈ 21.5 µM)
MIC Staphylococcus aureus (GC 3051) [3]: 32 µg/mL (≈ 21.5 µM)
MIC Staphylococcus aureus (GC 3053) [3]: 64 µg/mL (≈ 43.1 µM)
MIC Staphylococcus aureus (GC 4541) [3]: 32 µg/mL (≈ 21.5 µM)
MIC Staphylococcus aureus (GC 4542) [3]: 32 µg/mL (≈ 21.5 µM)
MIC Staphylococcus aureus-SMITH (GC 4543) [3]: 32 µg/mL (≈ 21.5 µM)
MIC Staphylococcus aureus (GC 4544) [3]: 32 µg/mL (≈ 21.5 µM)
MIC Staphylococcus aureus (GC 4545) [3]: 32 µg/mL (≈ 21.5 µM)
MIC Staphylococcus haemolyticus (GC 4546) [3]: 32 µg/mL (≈ 21.5 µM)
MIC Coagulase Negative Staphylococcus (GC 4547) [3]: 32 µg/mL (≈ 21.5 µM)
MIC Coagulase Negative Staphylococcus (GC 4548) [3]: 32 µg/mL (≈ 21.5 µM)
MIC Coagulase Negative Staphylococcus (GC 4549) [3]: 32 µg/mL (≈ 21.5 µM)
MIC Coagulase Negative Staphylococcus (GC 4551) [3]: 32 µg/mL (≈ 21.5 µM)
MIC Coagulase Negative Staphylococcus (GC 6257) [3]: 8 µg/mL (≈ 5.38 µM)
MIC Escherichia coli (ATCC 25922) [4]: >64 µg/mL
MIC Escherichia coli (GC 4559) [4]: >64 µg/mL
MIC Escherichia coli (GC 4560) [4]: 8 µg/mL (≈ 5.38 µM)

CC(c1ccccc1)C1NC(=O)CNC(=O)C(CO)NC(=O)C(CC2CNC(=N)N2C2OC(CO)C(O)C(O)C2O)NC(=O)C(CC2CNC(=N)N2)NC(=O)C(Cc2ccc3oc(-c4ccc5c(c4)Cc4ccccc4-5)nc3c2)NC1=O (stereo not drawn) [Example 42, Cyclo[3-[2-(9H-fluoren-2-yl)-1,3-benzoxazol-5-yl]alanyl-3-(2-iminoimidazolidin-4-yl)alanyl-3-(3-hexopyranosyl-2-iminoimidazolidin-4-yl)alanylserylglycyl-β-methylphenylalanyl]]
MIC Streptococcus pneumoniae (ATCC 6301) ([1]; strain ATCC 6301; broth dilution, 18 hours at 35° C.): 8 µg/mL (≈ 7.09 µM)
MIC Streptococcus pneumoniae (GC 1894) ([1]; strain GC 1894; broth dilution, 18 hours at 35° C.): 16 µg/mL (≈ 14.2 µM)
MIC Streptococcus pyogenes (GC 4563) ([1]; strain GC 4563; broth dilution, 18 hours at 35° C.): 4 µg/mL (≈ 3.55 µM)
MIC Streptococcus agalactiae (GC 4564) ([1]; strain GC 4564; broth dilution, 18 hours at 35° C.): 8 µg/mL (≈ 7.09 µM)
MIC Streptococcus pneumoniae (GC 4565) ([1]; strain GC 4565; broth dilution, 18 hours at 35° C.): 16 µg/mL (≈ 14.2 µM)
MIC Enterococcus faecalis (ATCC 29212) ([2]; strain ATCC 29212; broth dilution, 18 hours at 35° C.): 8 µg/mL (≈ 7.09 µM)
MIC Enterococcus faecalis (GC 2242) ([2]; strain GC 2242; broth dilution, 18 hours at 35° C.): 8 µg/mL (≈ 7.09 µM)
MIC Enterococcus faecium (GC 2243) ([2]; strain GC 2243; broth dilution, 18 hours at 35° C.): 4 µg/mL (≈ 3.55 µM)
MIC Enterococcus faecalis (GC 2691) ([2]; strain GC 2691; broth dilution, 18 hours at 35° C.): 8 µg/mL (≈ 7.09 µM)
MIC Enterococcus faecalis (GC 3059) ([2]; strain GC 3059; broth dilution, 18 hours at 35° C.): 16 µg/mL (≈ 14.2 µM)
MIC Enterococcus faecalis (GC 4552) ([2]; strain GC 4552; broth dilution, 18 hours at 35° C.): 8 µg/mL (≈ 7.09 µM)
MIC Enterococcus faecalis (GC 4553) ([2]; strain GC 4553; broth dilution, 18 hours at 35° C.): 8 µg/mL (≈ 7.09 µM)
MIC Enterococcus faecalis (GC 4554) ([2]; strain GC 4554; broth dilution, 18 hours at 35° C.): 8 µg/mL (≈ 7.09 µM)
MIC Enterococcus faecium (GC 4556) ([2]; strain GC 4556; broth dilution, 18 hours at 35° C.): 16 µg/mL (≈ 14.2 µM)
MIC Enterococcus faecium (GC 4557) ([2]; strain GC 4557; broth dilution, 18 hours at 35° C.): 2 µg/mL (≈ 1.77 µM)
MIC Enterococcus avium (GC 4558) ([2]; strain GC 4558; broth dilution, 18 hours at 35° C.): 4 µg/mL (≈ 3.55 µM)
MIC Enterococcus faecalis (GC 6189) ([2]; strain GC 6189; broth dilution, 18 hours at 35° C.): 8 µg/mL (≈ 7.09 µM)
MIC Staphylococcus aureus (ATCC 29213) [3]: 4 µg/mL (≈ 3.55 µM)
MIC Staphylococcus aureus (GC 1131) [3]: 2 µg/mL (≈ 1.77 µM)
MIC Staphylococcus aureus (GC 3051) [3]: 8 µg/mL (≈ 7.09 µM)
MIC Staphylococcus aureus (GC 3053) [3]: 4 µg/mL (≈ 3.55 µM)
MIC Staphylococcus aureus (GC 4541) [3]: 2 µg/mL (≈ 1.77 µM)
MIC Staphylococcus aureus (GC 4542) [3]: 2 µg/mL (≈ 1.77 µM)
MIC Staphylococcus aureus-SMITH (GC 4543) [3]: 2 µg/mL (≈ 1.77 µM)
MIC Staphylococcus aureus (GC 4544) [3]: 2 µg/mL (≈ 1.77 µM)
MIC Staphylococcus aureus (GC 4545) [3]: 2 µg/mL (≈ 1.77 µM)
MIC Staphylococcus haemolyticus (GC 4546) [3]: 2 µg/mL (≈ 1.77 µM)
MIC Coagulase Negative Staphylococcus (GC 4547) [3]: 2 µg/mL (≈ 1.77 µM)
MIC Coagulase Negative Staphylococcus (GC 4548) [3]: 1 µg/mL (≈ 0.886 µM)
MIC Coagulase Negative Staphylococcus (GC 4549) [3]: 1 µg/mL (≈ 0.886 µM)
MIC Coagulase Negative Staphylococcus (GC 4551) [3]: 4 µg/mL (≈ 3.55 µM)
MIC Coagulase Negative Staphylococcus (GC 6257) [3]: 1 µg/mL (≈ 0.886 µM)
MIC Escherichia coli (ATCC 25922) ([4]; strain ATCC 25922, broth dilution): 32 µg/mL (≈ 28.4 µM)
MIC Escherichia coli (GC 4559) ([4]; strain GC 4559, broth dilution): 32 µg/mL (≈ 28.4 µM)
MIC Escherichia coli (GC 4560) ([4]; strain GC 4560, broth dilution): 1 µg/mL (≈ 0.886 µM)
